Values belong to the compound of their own block, whether it stands above or below them.
Experiments:
c-Met [1] = molecular target: T1, c-Met (Homo sapiens, UniProt P08581); assay: Cell based ELISA assay for HGF stimulated c-Met phosphorylation in S114 cells; parameters: expressed in transfected cells; host or cells: S114 (murine NIH 3T3 derived); settings: read-out: c-Met Cell ELISA IC-50
Procedure: A cell based ELISA assay was developed to evaluate the ability of compounds to inhibit HGF stimulated c-Met phosphorylation in cells.
S114 cells were seeded to a 96 well tissue culture treated dish at a concentration of 5×10^4 per well. After a 16-20 hour incubation, culture medium was removed and replaced with serum free medium supplemented with 0.5% BSA. Test compound was then added and incubated with the cells for 60 minutes, followed by the addition of 1 μl HGF at […] for 15 minutes. […] Following another 1 hour incubation at room temperature the plates were washed three times with Delfia wash buffer (Perkin Elmer). After the final wash, […] of Delfia enhancer solution (Perkin Elmer) was added and allowed to incubate for 60 minutes. Plates were read on an LJL Analyst instrument (Molecular Devices; Sunnyvale, Calif.) with filter settings of 360 excitation, 620 emission, and 410 dichroic. IC50 values were calculated using Graphpad Prism software (Graphpad Software; San Diego, Calif.).
Target sequence in this assay (P08581 25-1390): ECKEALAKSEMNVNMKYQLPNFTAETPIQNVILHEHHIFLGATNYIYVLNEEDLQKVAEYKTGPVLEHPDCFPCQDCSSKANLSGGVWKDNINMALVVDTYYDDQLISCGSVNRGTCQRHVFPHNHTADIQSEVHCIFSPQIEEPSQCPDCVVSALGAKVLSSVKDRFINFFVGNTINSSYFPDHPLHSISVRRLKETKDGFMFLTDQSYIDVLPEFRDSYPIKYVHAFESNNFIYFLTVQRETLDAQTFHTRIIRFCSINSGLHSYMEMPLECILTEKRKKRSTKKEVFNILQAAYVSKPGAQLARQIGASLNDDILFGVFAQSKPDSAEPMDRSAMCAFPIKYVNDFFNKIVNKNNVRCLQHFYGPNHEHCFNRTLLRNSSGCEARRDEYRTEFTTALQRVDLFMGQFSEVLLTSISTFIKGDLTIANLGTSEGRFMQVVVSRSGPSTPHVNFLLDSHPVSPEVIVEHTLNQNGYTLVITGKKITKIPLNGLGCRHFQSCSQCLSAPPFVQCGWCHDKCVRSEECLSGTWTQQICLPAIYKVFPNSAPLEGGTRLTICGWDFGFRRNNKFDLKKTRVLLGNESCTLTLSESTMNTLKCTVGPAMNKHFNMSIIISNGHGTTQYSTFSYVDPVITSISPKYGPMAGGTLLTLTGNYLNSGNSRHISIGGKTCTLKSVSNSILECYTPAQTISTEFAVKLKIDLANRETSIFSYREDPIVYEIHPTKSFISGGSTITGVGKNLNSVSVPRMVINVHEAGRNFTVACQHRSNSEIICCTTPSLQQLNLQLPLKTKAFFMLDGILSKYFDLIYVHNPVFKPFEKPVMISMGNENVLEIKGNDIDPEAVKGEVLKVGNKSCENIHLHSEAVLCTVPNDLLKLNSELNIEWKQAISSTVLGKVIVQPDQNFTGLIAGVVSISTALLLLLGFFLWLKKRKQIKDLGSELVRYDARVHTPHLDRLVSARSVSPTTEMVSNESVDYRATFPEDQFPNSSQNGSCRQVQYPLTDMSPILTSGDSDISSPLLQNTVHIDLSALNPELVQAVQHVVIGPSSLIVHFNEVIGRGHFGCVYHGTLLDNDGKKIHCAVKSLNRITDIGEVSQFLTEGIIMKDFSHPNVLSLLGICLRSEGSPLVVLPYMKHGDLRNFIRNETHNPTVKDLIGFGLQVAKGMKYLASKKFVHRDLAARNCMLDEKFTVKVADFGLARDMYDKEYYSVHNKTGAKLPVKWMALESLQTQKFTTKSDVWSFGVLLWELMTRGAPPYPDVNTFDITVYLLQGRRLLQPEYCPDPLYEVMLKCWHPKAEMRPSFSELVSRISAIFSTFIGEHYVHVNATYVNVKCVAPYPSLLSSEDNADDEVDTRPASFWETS

c-Met [2] = molecular target: T1, c-Met; assay: Delfia autophosphorylation kinase assay on the c-Met; type: biochemical; parameters: The purified His6 tagged cytoplasmic domain of c-Met was diluted to a concentration of 500 ng/ml; host or cells: Sf9 insect cells (baculovirus, pFastBacHTa); settings: His6 tagged cytoplasmic domain of c-Met, 1 μM ATP; read-out: cMet Delfia autophos IC-50
Procedure: A DELFIA time resolved fluorescence assay was developed for screening of compounds that decreases the autophosphorylation thus the kinase activity of c-Met. The DELFIA assay is non-radioactive. The autophosphorylation of the c-Met is measured by an anti-phosphotyrosine antibody coupled to an Europium tag.
A major advantage of this format is that it allowed for the development of an autophosphorylation assay using Ni-chelate plates which bind the hexa-his tag on the recombinant Met kinase. The autophosphorylation assay allows one to use a known substrate, Met kinase itself, for the phosphorylation.
The assay procedure for screening is as follows. The purified His6 tagged cytoplasmic domain of c-Met was diluted to a concentration of 500 ng/ml in enzyme dilution buffer (50 mM Tris-HCl, pH8.0, 0.1% BSA) and dispensed to assay plates at a volume of 50 μl per well. Black opaque HisGrab Nickel coated 96 well plates (Pierce, Rockford, Ill.) were selected for use. Next, 2.5 μl of compound in 40% DMSO was added to test wells, 2.5 μl of 40% DMSO only was added to the negative control wells. The autophosphorylation reaction was initiated upon the addition of 50 μl of reaction buffer, 50 mM Tris-HCl, pH 8.0, 10 mM MgCl2, 0.1 mM Na3VO4, 1 mM DTT, 1 μM ATP. Plates were incubated at room temperature for 1 hour followed by 2 washes with 200 μl/well of PBS. Europium conjugated anti-phosphotyrosine antibody, Eu-PY20 from Perkin Elmer was diluted to 50 ng/ml in Delfia AB buffer (Perkin Elmer, Boston, Mass.), added to the 96 well assay plates at a volume of 100 μl/well, and incubated at room temperature for 2 hours. Assay plates were then washed 4 times each with 200 μl/well of Delfia wash buffer (Perkin Elmer). After the final wash 150 μl of Delfia Enhancement solution (Perkin Elmer) was added to each well of the assay plate and incubated at room temperature for 1 hour. Plates were read on an LJL Analyst instrument (Molecular Devices; Sunnyvale, Calif.) with filter settings of 360 excitation, 620 emission, and 410 dichroic. IC50 values were calculated using Graphpad Prism software (Graphpad Software; San Diego, Calif.).
Target sequence in this assay (P08581 956-1390 limits assumed): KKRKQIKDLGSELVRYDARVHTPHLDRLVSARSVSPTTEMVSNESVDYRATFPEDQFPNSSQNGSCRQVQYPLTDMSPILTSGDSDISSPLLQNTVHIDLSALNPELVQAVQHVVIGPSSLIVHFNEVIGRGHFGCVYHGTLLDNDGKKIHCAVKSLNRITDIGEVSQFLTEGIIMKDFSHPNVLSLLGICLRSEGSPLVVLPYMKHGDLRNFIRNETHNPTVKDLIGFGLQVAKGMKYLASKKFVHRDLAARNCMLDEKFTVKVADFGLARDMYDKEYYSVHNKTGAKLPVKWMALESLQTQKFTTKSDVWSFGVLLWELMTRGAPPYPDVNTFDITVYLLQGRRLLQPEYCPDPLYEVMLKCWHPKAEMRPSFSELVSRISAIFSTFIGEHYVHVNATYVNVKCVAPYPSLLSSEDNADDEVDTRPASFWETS

IC50 (c-Met [1]): 0.0002 µM
IC50 (c-Met [2]): 0.0003 µM
SMILES: c1cnc2ccc(Cc3nnc4ccc(-c5cc6ccccc6s5)nn34)cc2c1 [Example 72, 6-(6-Benzo[b]thiophen-2-yl-[1,2,4]triazolo[4,3-b]pyridazin-3-ylmethyl)-quinoline]

IC50 (c-Met [1]): 0.18 µM
IC50 (c-Met [2]): 0.004 µM
SMILES: c1cnc2ccc(Cc3nnc4ccc(-c5cn[nH]c5)nn34)cc2c1 [Example 76, 6-[6-(1H-Pyrazol-4-yl)-[1,2,4]triazolo[4,3-b]pyridazin-3-ylmethyl]-quinoline]

IC50 (c-Met [1]): 0.26 µM
IC50 (c-Met [2]): 0.053 µM
SMILES: Cn1ccc2cc(-c3ccc4nnc(Cc5ccc6ncccc6c5)n4n3)ccc21 [Example 85, 6-[6-(1-Methyl-1H-indol-5-yl)-[1,2,4]triazolo[4,3-b]pyridazin-3-ylmethyl]-quinoline]

IC50 (c-Met [1]): 3.3 µM
IC50 (c-Met [2]): 0.03 µM
SMILES: Cc1nc2ccc(-c3ccc4nnc(Cc5ccc6ncccc6c5)n4n3)cc2[nH]1 [Example 79, 6-[6-(2-Methyl-3H-benzoimidazol-5-yl)-[1,2,4]triazolo[4,3-b]pyridazin-3-ylmethyl]-quinoline]

IC50 (c-Met [1]): 0.13 µM
IC50 (c-Met [2]): 0.004 µM
SMILES: Cn1cc(-c2ccc3nnc(Cc4ccc5nc(N)sc5c4)n3n2)cn1 [Example 93, 6-[6-(1-Methyl-1H-pyrazol-4-yl)-[1,2,4]triazolo[4,3-b]pyridazin-3-ylmethyl]-benzothiazol-2-ylamine]

IC50 (c-Met [1]): 0.06 µM
IC50 (c-Met [2]): 0.0008 µM
SMILES: OCCCn1cc(-c2ccc3nnc(Cc4ccc5ncccc5c4)n3n2)cn1 [Example 75, 3-[4(3-Quinolin-6-ylmethyl-[1,2,4]triazolo[4,3-b]pyridazin-6-yl)-pyrazol-1-yl]-propan-1-ol]

IC50 (c-Met [1]): 0.21 µM
IC50 (c-Met [2]): 0.004 µM
SMILES: CN1CCN(C(=O)c2ccc(-c3ccc4nnc(C(F)(F)c5ccc6c(c5)CCO6)n4n3)s2)CC1 [Example 103, (5-{3-[(2,3-Dihydro-benzofuran-5-yl)-difluoro-methyl]-[1,2,4]triazolo[4,3-b]pyridazin-6-yl}-thiophen-2-yl)-(4-methyl-piperazin-1-yl)-methanone]

IC50 (c-Met [1]): 0.009 µM
IC50 (c-Met [2]): 0.001 µM
SMILES: Clc1cc(-c2ccc3nnc(Cc4ccc5ncccc5c4)n3n2)ccn1 [Example 95, 6-[6-(2-Chloro-pyridin-4-yl)-[1,2,4]triazolo[4,3-b]pyridazin-3-ylmethyl]-quinoline]

IC50 (c-Met [1]): 0.14 µM
IC50 (c-Met [2]): 0.025 µM
SMILES: Cn1cc(-c2ccc3nnc(Cc4ccc5ncncc5c4)n3n2)cn1 [Example 70, 6-[6-(1-Methyl-1H-pyrazol-4-yl)-[1,2,4]triazolo[4,3-b]pyridazin-3-ylmethyl]-quinazoline]

IC50 (c-Met [1]): 0.004 µM
IC50 (c-Met [2]): 0.0006 µM
SMILES: Cc1cc(-c2ccc3nnc(Cc4ccc5ncccc5c4)n3n2)ccn1 [Example 87, 6-[6-(2-Methyl-pyridin-4-yl)-[1,2,4]triazolo[4,3-b]pyridazin-3-ylmethyl]-quinoline]

The remaining lines, values behind:

SMILES: Oc1ccc(Cc2nnc3ccc(-c4ccn[nH]4)nn23)cc1 [Example 5, 4-[6-(2H-Pyrazol-3-yl)-[1,2,4]triazolo[4,3-b]pyridazin-3-ylmethyl]-phenol]
IC50 (c-Met [1]): 1.93 µM
IC50 (c-Met [2]): 0.015 µM

SMILES: c1csc(-c2ccc3nnc(Cc4ccncc4)n3n2)c1 [Example 33, 3-Pyridin-4-ylmethyl-6-thiophen-2-yl-[1,2,4]triazolo[4,3-b]pyridazine]
IC50 (c-Met [1]): 9.9 µM
IC50 (c-Met [2]): 0.096 µM

SMILES: FC(F)(c1ccc2ncccc2c1)c1nnc2ccc(-c3cnc4ccccc4c3)nn12 [Example 66, 6-[Difluoro-(6-quinolin-3-yl-[1,2,4]triazolo[4,3-b]pyridazin-3-yl)-methyl]-quinoline]
IC50 (c-Met [1]): 0.005 µM
IC50 (c-Met [2]): 0.0009 µM

SMILES: Cn1cc(-c2ccc3nnc(Cc4ccc5c(c4)CCO5)n3n2)cn1 [Example 62, 3-(2,3-Dihydro-benzofuran-5-ylmethyl)-6-(1-methyl-1H-pyrazol-4-yl)-[1,2,4]triazolo[4,3-b]pyridazine]
IC50 (c-Met [1]): 0.27 µM
IC50 (c-Met [2]): 0.02 µM

SMILES: c1cnc2ccc(Cc3nnc4ccc(-n5ccnc5)nn34)cc2c1 [Example 43, 6-(6-Imidazol-1-yl-[1,2,4]triazolo[4,3-b]pyridazin-3-ylmethyl)-quinoline]
IC50 (c-Met [1]): 0.14 µM
IC50 (c-Met [2]): 0.011 µM

SMILES: c1cncc(-c2ccc3nnc(Cc4ccc5ncccc5c4)n3n2)c1 [Example 11, 6-(6-Pyridin-3-yl-[1,2,4]triazolo[4,3-b]pyridazin-3-ylmethyl)-quinoline]
IC50 (c-Met [1]): 0.086 µM
IC50 (c-Met [2]): 0.006 µM

SMILES: c1csc(-c2ccc3nnc(Cc4ccc5c(c4)CCO5)n3n2)c1 [Example 22, 3-(2,3-Dihydro-benzofuran-5-ylmethyl)-6-thiophen-2-yl-[1,2,4]triazolo[4,3-b]pyridazine]
IC50 (c-Met [1]): 0.009 µM
IC50 (c-Met [2]): 0.015 µM

SMILES: CN1CCN(C(=O)c2ccc(-c3ccc4nnc(Cc5ccc6c(c5)CCO6)n4n3)s2)CC1 [Example 50, {5-[3-(2,3-Dihydro-benzofuran-5-ylmethyl)-[1,2,4]triazolo[4,3-b]pyridazin-6-yl]-thiophen-2-yl}-(4-methyl-piperazin-1-yl)-methanone]
IC50 (c-Met [1]): 0.012 µM
IC50 (c-Met [2]): 0.002 µM

SMILES: COCCn1cc(-c2ccc3nnc(Cc4ccc5ncccc5c4)n3n2)cn1 [Example 16, 6-{6-[1-(2-Methoxy-ethyl)-1H-pyrazol-4-yl]-[1,2,4]triazolo[4,3-b]pyridazin-3-ylmethyl}-quinoline]
IC50 (c-Met [1]): 0.295 µM
IC50 (c-Met [2]): 0.009 µM

SMILES: O=c1[nH]cnc2ccc(Cc3nnc4ccc(-c5cccnc5)nn34)cc12 [Example 69, 6-(6-Pyridin-3-yl-[1,2,4]triazolo[4,3-b]pyridazin-3-ylmethyl)-3H-quinazolin-4-one]
IC50 (c-Met [1]): > 1 µM
IC50 (c-Met [2]): 0.017 µM

SMILES: COc1ccc(Cc2nnc3ccc(-c4cccs4)nn23)cc1 [Example 25, 3-(4-Methoxy-benzyl)-6-thiophen-2-yl-[1,2,4]triazolo[4,3-b]pyridazine]
IC50 (c-Met [1]): 0.483 µM
IC50 (c-Met [2]): 0.041 µM

SMILES: CC(C)N1CCN(C(=O)c2ccc(-c3ccc4nnc(Cc5ccc6ncccc6c5)n4n3)s2)CC1 [Example 55, (4-Isopropyl-piperazin-1-yl)-[5-(3-quinolin-6-ylmethyl-[1,2,4]triazolo[4,3-b]pyridazin-6-yl)-thiophen-2-yl]-methanone]
IC50 (c-Met [1]): 0.001 µM
IC50 (c-Met [2]): 0.001 µM

SMILES: Oc1ccc(Cc2nnc3ccc(-c4cn[nH]c4)nn23)cc1 [Example 3, 4-[6-(1H-Pyrazol-4-yl)-[1,2,4]triazolo[4,3-b]pyridazin-3-ylmethyl]-phenol]
IC50 (c-Met [1]): 1.03 µM
IC50 (c-Met [2]): 0.016 µM

SMILES: COc1ccc(C(F)(F)c2nnc3ccc(-c4cccs4)nn23)cc1 [Example 58, 3-[Difluoro-(4-methoxy-phenyl)-methyl]-6-thiophen-2-yl-[1,2,4]triazolo[4,3-b]pyridazine]
IC50 (c-Met [1]): 0.314 µM
IC50 (c-Met [2]): 0.095 µM

SMILES: Brc1cn(-c2ccc3nnc(Cc4ccc5ncccc5c4)n3n2)cn1 [Example 44, 6-[6-(4-Bromo-imidazol-1-yl)-[1,2,4]triazolo[4,3-b]pyridazin-3-ylmethyl]-quinoline]
IC50 (c-Met [1]): 0.143 µM
IC50 (c-Met [2]): 0.002 µM

SMILES: CCOC(=O)c1ccc(-c2ccc3nnc(Cc4ccc(O)cc4)n3n2)s1 [Example 48, 5-[3-(4-Hydroxy-benzyl)-[1,2,4]triazolo[4,3-b]pyridazin-6-yl]-thiophene-2-carboxylic acid ethyl ester]
IC50 (c-Met [1]): 0.014 µM
IC50 (c-Met [2]): 0.002 µM

SMILES: COc1ccc(Cc2nnc3ccc(-c4cccs4)nn23)cn1 [Example 31, 3-(6-Methoxy-pyridin-3-ylmethyl)-6-thiophen-2-yl-[1,2,4]triazolo[4,3-b]pyridazine]
IC50 (c-Met [1]): 2.4 µM
IC50 (c-Met [2]): 0.077 µM

SMILES: COCCN(CCOC)C(=O)c1ccc(-c2ccc3nnc(Cc4ccc5c(c4)CCO5)n3n2)s1 [Example 51, 5-[3-(2,3-Dihydro-benzofuran-5-ylmethyl)-[1,2,4]triazolo[4,3-b]pyridazin-6-yl]-thiophene-2-carboxylic acid bis-(2-methoxy-ethyl)-amide]
IC50 (c-Met [1]): 0.008 µM
IC50 (c-Met [2]): 0.0002 µM
